Test [1] relates to DMBA-induced rat mammary carcinoma. As to the kind of experiment: DMBA-induced rat mammary carcinoma model. Type of test: in vivo. The following applies: initial tumor weight = 100%. An excerpt: • In vivo Experiment: DMBA-induced rat mammary carcinoma model • Experimental Animal: Sprague-Dawley rat, female • Procedure: The mammary carcinoma was induced by a single oral dose of DMBA. The animals received perifosine from day 0 to day 14 and were observed up to day 42. The weight of the tumor mass was estimated by palpation and comparison with plastic models.
• In vivo Experiment: DMBA-induced rat mammary carcinoma model • Experimental Animal: Sprague-Dawley rat, female • Procedure: The mammary carcinoma was induced by a single oral dose of DMBA. The animals received perifosine from day 0 to day 14 and were observed up to day 42. The eight of the tumor was mass was estimated by palpation and comparison with plastic models.

In the next test the test system is tumor cells. Conditions: Patel et al. 2002; cited from earlier work.
Where [2] appears, read: Example 3, female Sprague-Dawley rat, Perifosine 14×6.81 mg/kg p.o., Adriamycin 4×2.15 mg/kg i.p.
The mark [3] stands for this setting: Example 1, female Sprague-Dawley rat, Perifosin 14×6.81 mg/kg p.o., Cis-platinum 4×1 mg/kg i.p.
Setting [4] is: Example 2, female Sprague-Dawley rat, Perifosine 14×6.81 mg/kg p.o., Cyclophosphamide 100 mg/kg i.v.

On to `COc1cccc2c1C(=O)c1c(O)c3c(c(O)c1C2=O)C[C@@](O)(C(=O)CO)C[C@@H]3O[C@H]1C[C@H](N)[C@H](O)[C@H](C)O1` [Adriamycin, reference compound], for which, in test [1] (setting [2]), the “Day 21, Change in % (tumor weight)” value amounted to 781%. As to `N.N.[Cl][Pt][Cl]` [Cis-platinum, reference compound], the “Day 21, Change in % (tumor weight)” value in test [1] (setting [3]) was 410%.

Turning to `O=P1(N(CCCl)CCCl)NCCCO1` (stereo not shown) [Cyclophosphamide, reference compound], the “Day 21, Change in % (tumor weight)” value in test [1] (setting [4]) came out at 500%.

As for `CCCCCCCCCCCCCCCCCCOP(=O)([O-])OC1CC[N+](C)(C)CC1` [Perifosin (D-21266), perifosine], the “Day 21, Change in % (tumor weight)” value in test [1] (setting [3]), in test [1] (setting [4]) and in test [1] (setting [2]) was −25% in each case. The cell cycle block entry in the test with tumor cells was “blocks tumor cells in the G1-S and G2-M phase of the cell cycle”.

(Values after patent US8551977B2, “Use of perifosine in combination with antimetabolites for the treatment of benign and malignant oncoses in humans and mammals” (AEterna Zentaris GmbH, priority 2002, dated 2013).)
